Consider 19 molecules from patent US20090023773A1, “COMPOSITIONS AND METHODS FOR MODULATING GATED ION CHANNELS” (PainCeptor Pharma Corporation, priority 2007, published 2009).

Assay [1] has as its target T1, recombinant homomeric hASIC1a channels (Homo sapiens, UniProt P78348).
T1 construct: expressed in transfected cells; host or cells: Xenopus laevis oocytes (nuclear microinjection of expression vector such as pcDNA3)
T1 sequence (P78348 1-528): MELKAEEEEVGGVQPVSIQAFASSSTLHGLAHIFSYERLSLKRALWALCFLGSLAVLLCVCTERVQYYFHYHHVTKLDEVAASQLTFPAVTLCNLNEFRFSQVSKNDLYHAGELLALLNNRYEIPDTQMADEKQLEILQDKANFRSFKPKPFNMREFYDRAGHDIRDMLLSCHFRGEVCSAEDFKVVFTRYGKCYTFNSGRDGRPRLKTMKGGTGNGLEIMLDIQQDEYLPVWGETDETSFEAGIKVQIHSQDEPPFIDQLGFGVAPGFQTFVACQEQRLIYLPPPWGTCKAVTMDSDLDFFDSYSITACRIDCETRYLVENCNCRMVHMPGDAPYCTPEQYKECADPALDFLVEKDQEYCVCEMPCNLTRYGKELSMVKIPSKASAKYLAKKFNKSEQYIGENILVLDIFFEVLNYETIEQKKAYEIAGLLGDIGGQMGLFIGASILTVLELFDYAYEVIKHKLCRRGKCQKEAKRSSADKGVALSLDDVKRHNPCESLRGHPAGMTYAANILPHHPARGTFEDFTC
The assay is described as follows: Two-electrode voltage clamp in Xenopus laevis oocytes expressing gated ion channels (Example 4). It is filed as cell-based. The conditions noted are these: for IC50: generated using oocytes as in Example 4; for reduction in the current evoked by a mild pH stimulation: acid-induced inward currents in oocytes injected with hASIC1a cDNA, FIGS. 2A-2C. For orientation: In two-electrode clamp one electrode senses voltage and the other passes current.

The target in assay [2] is T2, hASIC1a (Homo sapiens, UniProt P78348).
T2 construct: expressed in transfected cells
T2 sequence (P78348 1-528): T1 sequence (P78348 1-528)
Briefly: Fluorescent calcium dye (Fluo-4-NW) assay in cells expressing hASIC1a (Example 1). It is filed as cell-based. The note with it: CHO cells stably expressing hASIC1a, mild acidic buffer, increasing concentrations; FIGS. 1A-1C. The method, then: ASIC1a expressing CHO cells are grown in culture medium (DMEM with 10% FBS), in polystyrene culture flasks ([…]) at 37° C. in a humidified atmosphere of 5% CO2. Confluency of cells should be 70-90% on day of plating. Cells are rinsed with 10 ml of PBS and cells are re-suspended by addition of culture medium and trituration with a 25 ml pipette. The cells are seeded at a density of approximately 10^4 cells/ml (50 μl/well and then brought to a total volume of 150 μl/well with culture medium, following 30 minutes incubation) in black-walled, clear bottom, 96-well plates pre-treated with poly-D-lysine (from BD Bioscience). Plated cells were allowed to proliferate for 48-72 h before loading with dye. Fluo-4-NW (500 μg, DiscoveRX) is dissolved in 110 μl DMSO. The Fluo-4-NW stock solution (1000×) is diluted with the assay buffer. A water soluble stock solution (100×) of probenicid (DiscoveRX) and a stock solution (1000×) of pluronic acid (P-127, Molecular Probes) are also added in the loading buffer containing Fluo-4NW dye. The culture medium is aspirated from the wells, and 100 μl of the Fluo-4-NW loading solution is added to each well. The cells are incubated at 37° C. for 30 min. followed by 30 min. incubation at room temperature. The assay buffer contains 90 mM NaCl, 5 mM KCl, 4 mM CaCl2, 0.8 mM MgSO4, 50 mM NMDG, 5 mM Glucose-D, 10 mM HEPES, pH 7.4. After the loading time, the loading buffer is not removed and the fluorescence is measured in FlexStation™ (Molecular Devices, USA), or any other suitable equipment known to the skilled in the art. Temperature: 25° C. First addition: 50 μl test solution at a rate of 26 μl/sec and a starting height of 125 μl. […] Reading intervals: pre-incubation—120 sec. antagonist phase, addition of MES at 145 sec. and reading time with agonist 100 sec (total run time of 240 sec.). Fluorescence obtained after stimulation is corrected for the mean basal fluorescence (in modified Assay Buffer). […] Gated-channel activity was determined by measuring intracellular calcium variation using a fluorescent calcium dye (Fluo-4-NW).

For assay [3], the system named is acute paw inflammation caused by intraplantar injection of λ-carrageenan. Briefly: Carrageenan model for pain (Example 8). It is filed as in vivo. The conditions noted are these: rat, 30 min prior to carrageenan, 4 h post-carrageenan. The method, then:
Acute inflammatory hyperalgesia is induced in rats by unilateral injection of 150 μl of a 3% solution of λ-carrageenan into the plantar surface of the left hind paw 3-5 hours prior to testing. Thermal hyperalgesia, mechanical allodynia, mechanical hyperalgesia, weight bearing asymmetry and paw inflammation were determined. Rats are pretreated with test compounds either administered intravenously (IV), by subcutaneous injection (SC) or by oral gavage (PO).
Thermal nociceptive thresholds are determined according to the method described elsewhere (Hargreaves et al., 1988). Briefly, through the glass surface, a radiant heat source (8V, 50 W projector bulb) is focused onto the plantar surface of the hind paw. The rat's paw-withdrawal latency to this stimulus is recorded to the nearest 0.1 s. Each latency score is an average of three trials, which are separated by at least 5 min. In all rats, both the injured and uninjured hind paws are similarly tested, allowing direct comparisons between inflamed and non-inflamed paws. […]
Mechanical hyperalgesia is determined by measuring the difference of withdrawal thresholds in response to increasing pressure in the inflamed vs contralateral paw using the Randall-Sellito Paw pressure meter (IITC Life Science) (Randall L O and Sellito J J., 1957). Briefly, rats are held in a contention jacket suspended by a stand and allowed to acclimate for 10 min. Then the tips of the paw pressure applicator are positioned close to the middle of the plantar and the dorsal area of the paw, avoiding the saphenous nerve innervations and an increasing pressure is applied until the rat removes it. Measures are performed in triplicate for each paw by alternating each paw with an interval of at least 1 min to avoid sensitization. […]
Carrageenan induced paw oedema is measured with a plethysmometer (IITC Life Science). Briefly, a mark is made on the ankles of the rat and the ipsi and contralateral paw are submerged 3 times into water up to the mark in order to determine the paw volume by calculation of water displacement.

For assay [4], the system named is chemically-induced spontaneous pain evoked by intraplantar injection of formalin. The assay is described as follows: Formalin test, model of acute tonic pain (Example 7). The conditions noted are these: rat; SC, 10 and 300 μmol/kg, 30 min prior to formalin; FIG. 3A. The format is in vivo. The method, then:
Male Sprague-Dawley rats are housed together in groups of three animals under standard conditions with unrestricted access to food and water. All experiments are conducted according to the ethical guidelines for investigations of experimental pain in conscious animals (Zimmerman, 1983).
Assessment of formalin-induced flinching behavior in normal, uninjured rats (body weight 200-300 g) is made after formalin (2.5% in saline, 50-100 μl, s.c.) is injected into the plantar surface of the hindpaw using a 27 G needle. Rats are pretreated with test compounds either administered intravenously (IV), by subcutaneous injection (SC) or by orally (PO).
Nociceptive behavior is determined manually every 5 min by measuring the amount of time spent in each of four behavioral categories: 0, treatment of the injected hindpaw is indistinguishable from that of the contralateral paw; 1, the injected paw has little or no weight placed on it; 2, the injected paw is elevated and is not in contact with any surface; 3, the injected paw is licked, bitten, or shaken. A weighted nociceptive score, ranging from 0 to 3 is calculated by multiplying the time spent in each category by the category weight, summing these products, and dividing by the total time for each 5 min block of time. (Coderre et al., Pain 1993; 54: 43). On the basis of the resulting response patterns, […] of nociceptive behavior are identified and scored: first phase (P1; 0-5 min), interphase (Int; 6-15 min), second phase (P2; […]), phase 2A (P2A; 16-40 min) and phase 2B (P2B; 41-60 min).
Statistical analysis is performed using the Prism™ 4.01 software package (GraphPad, San Diego, Calif., USA). The difference in response levels between treatment groups and control vehicle group is analyzed using an ANOVA followed by Bonferroni's method for post-hoc pair-wise comparisons. A p value <0.05 is considered to be significant.

Some results are limits rather than exact numbers.

Broadly, the IC50 is the concentration that gives 50% inhibition. For the molecule `Cc1cc(OC2CCN(Cc3ccccc3F)C(C)C2)c2cccc(F)c2n1` (stereo not drawn) [Compound 6, 8-Fluoro-4-[1-(2-fluoro-benzyl)-2-methyl-piperidin-4-yloxy]-2-methyl-quinoline], the IC50 in assay [1] (Table 1) was 0.1 to 10 µM. Further, the “reduction in the current evoked by a mild pH stimulation” value in assay [1] was “clear dose-dependent reduction”. Moreover, in assay [2], the “inhibition of acid-induced hASIC1a activity (intracellular calcium variation)” value was “dose-dependently inhibited”. In the case of `Cc1cc(OC2CCN(Cc3ccccc3-c3nnn[nH]3)CC2)c2cc(F)ccc2n1` [Compound 94, 4-(1-(2-(1H-tetrazol-5-yl)benzyl)piperidin-4-yloxy)-6-fluoro-2-methylquinoline], in assay [3] (30 and 100 mg/kg SC), the mechanical hyperalgesia result was “dose-dependently reversed”, the “size of the inflammation” value was “reduced” and the thermal hyperalgesia entry is recorded as “dose-dependently reversed”. Further, the IC50 in assay [1] (Table 2) was in the range of 0.1 to 10 µM. On to `Cc1cc(OC2CCN(Cc3ccccc3C(=O)O)CC2)c2cccc(F)c2n1` [Compound 1], for which, in assay [3] (120 mg/kg PO), the mechanical hyperalgesia result is “reversed”, the “size of the inflammation” value is reported as “reduced” and the thermal hyperalgesia entry is “reversed”. In addition, the “pain intensity as evaluated by the licking behavior” value in assay [4] is given as “dose-dependent reduction”. Also, the IC50 in assay [1] (Table 1) is 0.1 to 10 µM. Further, in assay [1], the “reduction in the current evoked by a mild pH stimulation” value is “clear dose-dependent reduction”. Also, the “inhibition of acid-induced hASIC1a activity (intracellular calcium variation)” value in assay [2] is reported as “dose-dependently inhibited”. As to `Cc1cc(OC2CCN(Cc3ccccc3C(=O)NCCCC(=O)OCc3ccccc3)CC2)c2cccc(F)c2n1` [Compound 61], in assay [1] (Table 2), the IC50 lay within 0.1 to 10 µM. `Cc1cc(OC2CCN(C(C)c3ccccc3C#N)CC2)c2cccc(F)c2n1` (stereo not drawn) [Compound 18]: in assay [1] (Table 1), the IC50 fell in the range of 20.1 to 30 µM. For the molecule `Cc1cc(OC2CCN(Cc3ccc(Br)cc3F)CC2)c2cccc(F)c2n1` [Compound 78], the IC50 in assay [1] (Table 2) was in the range of 20.1 to 30 µM.

In the case of `COc1ccc(CN2CCC(Oc3cc(C)nc4c(F)cccc34)CC2)cc1` [Compound 41], the IC50 in assay [1] (Table 2) is 0.1 to 10 µM.

Consider `Cc1cc(OC2CCN(Cc3ccc(O)cc3)CC2)c2cccc(F)c2n1` [Compound 26, 4-((4-(8-fluoro-2-methylquinolin-4-yloxy)piperidin-1-yl)methyl)phenol], for which, in assay [1] (Table 1), the IC50 was 0.1 to 10 µM.

`Cc1cc(OC2CCN(Cc3ccc(O)c(C(=O)O)c3)CC2)c2cccc(F)c2n1` [Compound 90]: in assay [1] (Table 2), the IC50 is not below 30 µM. Turning to `Cc1cc(OC2CCCN(Cc3ccccc3)C2)c2ccccc2n1` (stereo not drawn) [Compound 19], in assay [1] (Table 1), the IC50 was more than 30 µM. For the molecule `COc1cccc2c(OC3CCN(Cc4ccccc4-c4nnn[nH]4)CC3)cc(C)nc12` [Compound 93], the IC50 in assay [1] (Table 2) was 20.1 to 30 µM. Regarding `Cc1cc(OC2CCN(Cc3c(F)cccc3C(=O)O)CC2)c2cccc(F)c2n1` [Compound 23], the IC50 in assay [1] (Table 1) was more than 30 µM. For `Cc1cc(OC2CC(C)N(Cc3ccccc3F)C(C)C2)c2ccccc2n1` (stereo not drawn) [Compound 67], the IC50 in assay [1] (Table 2) was more than 30 µM.

`O=C(O)c1cc(OC2CCN(Cc3ccccc3)CC2)c2ccccc2n1` [Compound 12]: the IC50 in assay [1] (Table 1) fell in the range of 20.1 to 30 µM.

As for `COc1ccc(CC2CCC(Oc3cc(C)nc4c(F)cccc34)CC2)cc1` (stereo not drawn) [Compound 69], the IC50 in assay [1] (Table 2) was more than 30 µM. On the same count and under the same terms, the value for `Cc1cc(OC2CCCN(Cc3ccccc3)CC2)c2cccc(F)c2n1` (stereo not drawn) [Compound 75] was more than 30 µM; that for `COc1cc(F)cc2c(OC3CCN(Cc4ccccc4-c4nnn[nH]4)CC3)cc(C)nc12` [Compound 37, 6-Fluoro-8-methoxy-2-methyl-4-{1-[2-(1H-tetrazol-5-yl)-benzyl]-piperidin-4-yloxy}-quinoline] was 0.1 to 10 µM. Regarding `COc1cc(OC)c(CN2CCC(Oc3cc(C)nc4c(F)cccc34)CC2)c(C(=O)O)c1` [Compound 81], the IC50 in assay [1] (Table 2) is more than 30 µM. The same measure, in the same setting: the value for `Cc1cc(OC2CCN(Cc3ccccc3)CC2)c2cc(-c3cccc(F)c3)ccc2n1` [Compound 55] was more than 30 µM.
